Reference: ChEMBL document CHEMBL1201862, “PubChem BioAssay data set” (2004)
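Protocol summary: plate cells (96-well), add compound at 5 concentrations, incubate 48 h, interpolate endpoints linearly. Here, GI50 denotes the concentration required for 50% inhibition of growth.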 Active and inactive are the calls of the source. No stated cut-off is given here; in the data, active = GI50 up to about 1.1 µM and inactive = higher.

Assays:
Experiment in all cases: inhibition of tumour cell growth, NCI panel, 48 h
[1] = test system: 786-0
[2] = test system: A498
[3] = test system: A549
[4] = test system: ACHN
[5] = test system: CAKI-1
[6] = test system: CCRF-CEM
[7] = test system: COLO 205
[8] = test system: DLD-1
[9] = test system: DMS-114
[10] = test system: DMS-273
[11] = test system: EKVX
[12] = test system: HCC 2998
[13] = test system: HCT-116
[14] = test system: HL-60
[15] = test system: HOP-92
[16] = test system: HT-29
[17] = test system: IGROV-1
[18] = test system: K562
[19] = test system: KM12
[20] = test system: LXFL 529
[21] = test system: M19-MEL
[22] = test system: MOLT-4
[23] = test system: Malme-3M
[24] = test system: NCI-H226
[25] = test system: NCI-H23
[26] = test system: NCI-H460
[27] = test system: NCI-H522
[28] = test system: OVCAR-3
[29] = test system: OVCAR-5
[30] = test system: OVCAR-8
[31] = test system: RPMI-8226
[32] = test system: RXF 393
[33] = test system: RXF 631
[34] = test system: SF-268
[35] = test system: SF-295
[36] = test system: SF-539
[37] = test system: SK-MEL-28
[38] = test system: SK-MEL-2
[39] = test system: SK-MEL-5
[40] = test system: SK-OV-3
[41] = test system: SN12C
[42] = test system: SNB-19
[43] = test system: SNB-75
[44] = test system: SNB-78
[45] = test system: SR
[46] = test system: SW-620
[47] = test system: TK-10
[48] = test system: U-251
[49] = test system: UACC-257
[50] = test system: UACC-62
[51] = test system: UO-31
[52] = test system: HCT-15
[53] = test system: HOP-18
[54] = test system: HOP-62
[55] = test system: KM-20L2
[56] = test system: LOX IMVI
[57] = test system: M14
[58] = test system: OVCAR-4
[59] = test system: BT-549
[60] = test system: DU-145
[61] = test system: Hs-578T
[62] = test system: MCF7
[63] = test system: MDA-MB-231
[64] = test system: MDA-MB-435
[65] = test system: MDA-N
[66] = test system: NCI/ADR-RES
[67] = test system: PC-3
[68] = test system: T47D
[69] = test system: XF498

CCN(c1ccccc1)[C@H]1C(=O)N(c2ccc([N+](=O)[O-])cc2)[C@H]1c1ccc(OC)cc1
GI50 [1]: > 100 µM (inactive) | GI50 [2]: 80.7 µM (inactive) | GI50 [3]: > 100 µM (inactive) | GI50 [4]: > 100 µM (inactive) | GI50 [5]: 73.3 µM (inactive) | GI50 [6]: 39.1 µM (inactive) | GI50 [7]: 38 µM (inactive) | GI50 [8]: > 100 µM (inactive) | GI50 [9]: > 100 µM (inactive) | GI50 [10]: > 100 µM (inactive) | GI50 [11]: > 100 µM (inactive) | GI50 [12]: > 100 µM (inactive) | GI50 [13]: > 100 µM (inactive) | GI50 [14]: 75.3 µM (inactive) | GI50 [15]: 15.8 µM (inactive) | GI50 [16]: > 100 µM (inactive) | GI50 [17]: > 100 µM (inactive) | GI50 [18]: 41.6 µM (inactive) | GI50 [19]: > 100 µM (inactive) | GI50 [20]: > 100 µM (inactive) | GI50 [21]: 61.7 µM (inactive) | GI50 [22]: > 100 µM (inactive) | GI50 [23]: > 100 µM (inactive) | GI50 [24]: > 100 µM (inactive) | GI50 [25]: > 100 µM (inactive) | GI50 [26]: > 100 µM (inactive) | GI50 [27]: 63.5 µM (inactive) | GI50 [28]: > 100 µM (inactive) | GI50 [29]: > 100 µM (inactive) | GI50 [30]: > 100 µM (inactive) | GI50 [31]: > 100 µM (inactive) | GI50 [32]: 37.6 µM (inactive) | GI50 [33]: 35.8 µM (inactive) | GI50 [34]: > 100 µM (inactive) | GI50 [35]: 52.5 µM (inactive) | GI50 [36]: 35.2 µM (inactive) | GI50 [37]: > 100 µM (inactive) | GI50 [38]: > 100 µM (inactive) | GI50 [39]: > 100 µM (inactive) | GI50 [40]: 56.8 µM (inactive) | GI50 [41]: 98.6 µM (inactive) | GI50 [42]: > 100 µM (inactive) | GI50 [43]: 46.9 µM (inactive) | GI50 [44]: > 100 µM (inactive) | GI50 [45]: > 100 µM (inactive) | GI50 [46]: > 100 µM (inactive) | GI50 [47]: > 100 µM (inactive) | GI50 [48]: > 100 µM (inactive) | GI50 [49]: > 100 µM (inactive) | GI50 [50]: 35.7 µM (inactive) | GI50 [51]: > 100 µM (inactive)

CC(=O)NNc1nc(C)c(C(=O)NNC(=O)C(=O)Nc2ccccc2C#N)s1
GI50 [1]: > 100 µM (inactive) | GI50 [2]: > 100 µM (inactive) | GI50 [3]: > 100 µM (inactive) | GI50 [4]: > 100 µM (inactive) | GI50 [5]: > 100 µM (inactive) | GI50 [6]: 65.9 µM (inactive) | GI50 [7]: > 100 µM (inactive) | GI50 [8]: > 100 µM (inactive) | GI50 [9]: > 100 µM (inactive) | GI50 [10]: > 100 µM (inactive) | GI50 [11]: > 100 µM (inactive) | GI50 [12]: > 100 µM (inactive) | GI50 [13]: > 100 µM (inactive) | GI50 [52]: > 100 µM | GI50 [14]: > 100 µM (inactive) | GI50 [53]: > 100 µM (inactive) | GI50 [54]: > 100 µM (inactive) | GI50 [15]: > 100 µM (inactive) | GI50 [16]: > 100 µM (inactive) | GI50 [17]: > 100 µM (inactive) | GI50 [18]: > 100 µM (inactive) | GI50 [55]: > 100 µM (inactive) | GI50 [19]: 50.1 µM (inactive) | GI50 [56]: > 100 µM (inactive) | GI50 [20]: > 100 µM (inactive) | GI50 [57]: > 100 µM (inactive) | GI50 [21]: > 100 µM (inactive) | GI50 [22]: > 100 µM (inactive) | GI50 [23]: > 100 µM (inactive) | GI50 [24]: > 100 µM (inactive) | GI50 [25]: > 100 µM (inactive) | GI50 [26]: > 100 µM (inactive) | GI50 [27]: 88.1 µM (inactive) | GI50 [28]: > 100 µM (inactive) | GI50 [58]: > 100 µM (inactive) | GI50 [29]: > 100 µM (inactive) | GI50 [30]: > 100 µM (inactive) | GI50 [31]: > 100 µM (inactive) | GI50 [32]: > 100 µM (inactive) | GI50 [33]: > 100 µM (inactive) | GI50 [34]: > 100 µM (inactive) | GI50 [35]: > 100 µM (inactive) | GI50 [36]: > 100 µM (inactive) | GI50 [37]: > 100 µM (inactive) | GI50 [38]: > 100 µM (inactive) | GI50 [39]: > 100 µM (inactive) | GI50 [40]: > 100 µM (inactive) | GI50 [41]: > 100 µM (inactive) | GI50 [42]: > 100 µM (inactive) | GI50 [43]: > 100 µM (inactive) | GI50 [44]: > 100 µM (inactive) | GI50 [45]: 87.1 µM (inactive) | GI50 [46]: > 100 µM (inactive) | GI50 [47]: > 100 µM (inactive) | GI50 [48]: > 100 µM (inactive) | GI50 [49]: > 100 µM (inactive) | GI50 [50]: > 100 µM (inactive) | GI50 [51]: > 100 µM (inactive)

C=C1CC2(OC1=O)c1ccccc1CCc1ccccc12
GI50 [1]: 1.75 µM (inactive) | GI50 [2]: 25.8 µM (inactive) | GI50 [3]: 8.26 µM (inactive) | GI50 [4]: 1.71 µM (inactive) | GI50 [59]: 1.58 µM (inactive) | GI50 [5]: 1.75 µM (inactive) | GI50 [6]: 0.627 µM (active) | GI50 [7]: 1.91 µM (inactive) | GI50 [8]: 1.83 µM (inactive) | GI50 [9]: 1.85 µM (inactive) | GI50 [10]: 3.49 µM (inactive) | GI50 [60]: 18.7 µM (inactive) | GI50 [11]: 7.38 µM (inactive) | GI50 [12]: 2.54 µM (inactive) | GI50 [13]: 1.44 µM (inactive) | GI50 [52]: 1.91 µM | GI50 [14]: 0.729 µM (active) | GI50 [53]: 1.97 µM (inactive) | GI50 [54]: 26.1 µM (inactive) | GI50 [15]: 1.72 µM (inactive) | GI50 [16]: 1.84 µM (inactive) | GI50 [61]: 1.94 µM (inactive) | GI50 [17]: 7.23 µM (inactive) | GI50 [18]: 1.71 µM (inactive) | GI50 [55]: 4.06 µM (inactive) | GI50 [19]: 3.61 µM (inactive) | GI50 [56]: 1.46 µM (inactive) | GI50 [20]: 1.7 µM (inactive) | GI50 [57]: 1.97 µM (inactive) | GI50 [21]: 1.83 µM (inactive) | GI50 [62]: 4.59 µM (inactive) | GI50 [63]: 9.27 µM (inactive) | GI50 [64]: 2.48 µM (inactive) | GI50 [65]: 1.8 µM (inactive) | GI50 [22]: 2.43 µM (inactive) | GI50 [23]: 1.94 µM (inactive) | GI50 [24]: 13.2 µM (inactive) | GI50 [25]: 9.95 µM (inactive) | GI50 [26]: 12.5 µM (inactive) | GI50 [27]: 1.71 µM (inactive) | GI50 [66]: 1.63 µM (inactive) | GI50 [28]: 1.89 µM (inactive) | GI50 [58]: 1.93 µM (inactive) | GI50 [29]: 14.5 µM (inactive) | GI50 [30]: 4.48 µM (inactive) | GI50 [67]: 14.3 µM (inactive) | GI50 [31]: 2.07 µM (inactive) | GI50 [32]: 1.66 µM (inactive) | GI50 [34]: 1.93 µM (inactive) | GI50 [35]: 16.1 µM (inactive) | GI50 [36]: 2.13 µM (inactive) | GI50 [37]: 1.81 µM (inactive) | GI50 [38]: 5.62 µM (inactive) | GI50 [39]: 13.1 µM (inactive) | GI50 [40]: 17.7 µM (inactive) | GI50 [41]: 2.52 µM (inactive) | GI50 [42]: 7.62 µM (inactive) | GI50 [43]: 5.69 µM (inactive) | GI50 [44]: 2.18 µM (inactive) | GI50 [45]: 0.497 µM (active) | GI50 [46]: 1.59 µM (inactive) | GI50 [68]: 2.07 µM (inactive) | GI50 [47]: 2.84 µM (inactive) | GI50 [48]: 9.12 µM (inactive) | GI50 [49]: 3.82 µM (inactive) | GI50 [50]: 6.4 µM (inactive) | GI50 [51]: 9.82 µM (inactive) | GI50 [69]: 2.41 µM (inactive)
